Data from patent US8119675B2, “Benzimidazole derivatives” (Merck Patent GmbH, priority 2007, dated 2012).

Tests used:
SGLT1 = molecular target: T1, SGLT1 (Homo sapiens, UniProt P13866); assay: 14C-AMG uptake in BHK cells transfected with SGLT1 (96-well cell-based assay); settings: 50 μM AMG, 37° C., 90 min
T1 construct: expressed in transfected cells
T1 sequence (P13866 1-664): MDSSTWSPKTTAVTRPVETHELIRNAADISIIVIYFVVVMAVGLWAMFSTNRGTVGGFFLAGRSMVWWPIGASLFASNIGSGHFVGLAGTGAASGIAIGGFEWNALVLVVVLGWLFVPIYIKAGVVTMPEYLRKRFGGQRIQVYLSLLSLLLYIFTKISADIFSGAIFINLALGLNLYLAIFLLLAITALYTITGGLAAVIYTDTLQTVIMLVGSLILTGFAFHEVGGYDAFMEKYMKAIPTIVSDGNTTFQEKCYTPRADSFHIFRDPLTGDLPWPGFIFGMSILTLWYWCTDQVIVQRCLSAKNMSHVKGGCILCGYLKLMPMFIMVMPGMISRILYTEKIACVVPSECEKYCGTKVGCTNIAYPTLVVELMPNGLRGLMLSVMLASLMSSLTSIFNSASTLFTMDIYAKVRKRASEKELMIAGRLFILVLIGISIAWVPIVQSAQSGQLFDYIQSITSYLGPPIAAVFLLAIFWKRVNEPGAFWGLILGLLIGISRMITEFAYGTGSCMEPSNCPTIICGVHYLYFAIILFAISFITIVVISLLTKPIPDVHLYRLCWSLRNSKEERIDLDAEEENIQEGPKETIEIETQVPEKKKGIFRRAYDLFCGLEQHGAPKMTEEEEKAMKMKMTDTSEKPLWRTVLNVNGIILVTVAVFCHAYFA
From the text: (§1) The compounds can be tested for their SGLT inhibition properties by means of BHK cells expressing SGLT1 and SGLT2. The production of the cells and the testing can be carried out as described below.
To construct the SGLT1 expression vector (KL225), the SLC5A1 gene (homologous to NM_000343) was amplified from a cDNA library using standard PCR technology and cloned over NheI/XhoI sites into the pcDNA3.1 expression vector (Invitrogen) containing neomycin as a selection marker. In this vector, transcription uses the enhancer/promoter of human cytomegalovirus.
(§2) The final vector KL225 together with an additional vector containing a dihydrofolate reductase gene as a selection marker was introduced into cells. Transfection into BHK21 cells (ATCC CCL-10), cultivated in DMEM medium (GIBCO/BRL), supplemented with 10% foetal calf serum (FCS) and 20 mM glutamine, was carried out using calcium phosphate transfections according to Graham, F. L. and van der Ebb, A. J. (1973), Virology 52: 456 with 5-20 μg of uncut plasmids for 10^7 cells. Stable transfectants were selected in medium containing 1 mg/ml of G418 (GIBCO/BRL) and 20-5000 nM methotrexate as final concentration, where only cells which expressed the neomycin gene and overexpressed the dhfr gene were able to grow. After growth for 2-3 weeks, the cells were cloned (0.5 cells/well) and the clones were investigated for SGLT expression in radioactivity uptake tests.
(§3) The uptake of ^14C-α-methyl-D-glucopyranoside (AMG) in, for example, Xenopus oocytes injected with the corresponding cRNA has been described in principle (for example Wen-Sen Lee et al. (1994), J. Biol. Chem. 269, 12032-12039; Guofeng You et al. (1995), J. Biol. Chem. 270, 29365-29371).
(§4) A 96-well cell-based assay was developed and adapted to HTS requirements:
(§5) BHK cells (transfected with SGLT1 or SGLT2) were seeded into 96-well microtitre plates (Cultureplates, Perkin Elmer). After at least 24 h, medium was removed, and the cell layer was washed with assay buffer (140 mM NaCl, 2 mM KCl, 1 mM CaCl2, 1 mM MgCl2, 10 mM HEPES, 5 mM Tris, adjusted to pH 7.4 using 1 M KOH). After addition of 40 μl of assay buffer, 50 μl of AMG (50 μM for SGLT1 and 2 mM for SGLT2) in the presence or absence of compounds, the cells were incubated in a total volume of 100 μl at 37° C. for 90 min. Supernatant was removed by suction and discarded. Cells were washed and lysed by addition of 50 μl of water. After 10 min at room temperature, 200 μl of Micrsoscint 40 (Perkin Elmer) were added. The radioactivity was counted in a Topcount microplate scintillation counter (Perkin Elmer). The non-specific uptake was determined in sodium-free assay buffer (266 mM sucrose, 2 mM KCl, 1 mM CaCl2, 1 mM MgCl2, 10 mM HEPES, 5 mM Tris, adjusted to pH 7.4 using 1 M KOH).

SGLT2 = molecular target: T2, SGLT2 (Homo sapiens, UniProt P31639); assay: 14C-AMG uptake in BHK cells transfected with SGLT2 (96-well cell-based assay); settings: 2 mM AMG, 37° C., 90 min
T2 construct: expressed in transfected cells
T2 sequence (P31639 1-672): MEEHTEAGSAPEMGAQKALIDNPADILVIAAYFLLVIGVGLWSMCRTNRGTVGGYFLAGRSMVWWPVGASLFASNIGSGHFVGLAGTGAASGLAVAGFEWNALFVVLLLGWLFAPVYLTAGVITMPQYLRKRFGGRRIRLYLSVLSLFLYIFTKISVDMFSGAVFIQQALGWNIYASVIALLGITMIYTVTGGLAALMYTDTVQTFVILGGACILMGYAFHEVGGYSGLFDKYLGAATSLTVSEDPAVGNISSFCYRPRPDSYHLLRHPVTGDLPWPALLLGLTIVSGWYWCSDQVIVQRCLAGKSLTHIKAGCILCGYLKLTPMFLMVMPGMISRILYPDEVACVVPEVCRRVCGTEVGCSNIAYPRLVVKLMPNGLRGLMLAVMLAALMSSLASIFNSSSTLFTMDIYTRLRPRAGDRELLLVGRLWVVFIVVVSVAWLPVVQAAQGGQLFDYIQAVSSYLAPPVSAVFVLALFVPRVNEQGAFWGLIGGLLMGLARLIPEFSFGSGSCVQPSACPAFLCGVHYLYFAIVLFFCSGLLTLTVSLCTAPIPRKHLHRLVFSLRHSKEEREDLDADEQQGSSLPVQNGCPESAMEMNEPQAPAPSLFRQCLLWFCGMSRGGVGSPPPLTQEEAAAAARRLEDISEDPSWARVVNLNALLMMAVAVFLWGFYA
From the text: as §1
To construct the SGLT2 expression vector (KL224), the SLC5A2 gene (homologous to NM_003041) was amplified from a cDNA library using standard PCR technology and cloned over NheI/XhoI sites into PCI-neo expression vector (Promega) containing neomycin as a selection marker. In this vector, transcription uses the enhancer/promoter of human cytomegalovirus and the SV40 polyadenylation signal.
as §2, with “KL224” for “KL225”
as §3, §4, §5

`COc1cc(C)c(-c2nc3ccc(F)cc3n2Cc2c(C)cccc2C)c(OCC(N)=O)c1` [Compound A1, 2-{2-[1-(2,6-dimethylbenzyl)-6-fluoro-1H-benzimidazol-2-yl]-5-methoxy-3-methylphenoxy}acetamide] showed a melting point of 173 to 174 °C, an IC50 (SGLT1) greater than 10 µM and an IC50 (SGLT2) of 0.01 to 1 µM.

With `NC(=O)COc1ccccc1-c1nc2cc(F)ccc2n1Cc1c(Cl)cccc1Cl` [Compound A19, 2-{2-[1-(2,6-Dichlorobenzyl)-5-fluoro-1H-benzimidazol-2-yl]phenoxy}acetamide] the IC50 (SGLT1) was greater than 10 µM and the IC50 (SGLT2) was 1 to 10 µM.

Work on `NC(=O)COc1ccccc1-c1nc2cc(Cl)ccc2n1Cc1c(Cl)cccc1Cl` [Compound A18, 2-{2-[5-Chloro-1-(2,6-dichlorobenzyl)-1H-benzimidazol-2-yl]phenoxy}acetamide] yielded an IC50 (SGLT1) greater than 10 µM and an IC50 (SGLT2) greater than 10 µM.

`NC(=O)COc1ccccc1-c1nc2ccccc2n1Cc1ccccc1` [Compound A8, 2-[2-(1-Benzyl-1H-benzimidazol-2-yl)phenoxy]-acetamide] showed an IC50 (SGLT1) greater than 10 µM and an IC50 (SGLT2) greater than 10 µM.

Molecule `NC(=O)COc1ccccc1-c1nc2cccc(Cl)c2n1Cc1c(Cl)cccc1Cl` [Compound A21, 2-{2-[7-Chloro-1-(2,6-dichlorobenzyl)-1H-benzimidazol-2-yl]phenoxy}acetamide] has an IC50 (SGLT1) greater than 10 µM and an IC50 (SGLT2) of 1 to 10 µM.

Molecule `Cc1ccc(-c2nc3ccccc3n2Cc2c(C)cccc2C)c(OCC(N)=O)c1` [Compound A14, 2-{2-[1-(2,6-Dimethylbenzyl)-1H-benzimidazol-2-yl]-5-methylphenoxy}acetamide] has an IC50 (SGLT1) greater than 10 µM and an IC50 (SGLT2) of 0.01 to 1 µM.

In the case of `COc1cc(C)c(-c2nc3cc(F)c(F)cc3n2Cc2c(C)cccc2C)c(OCC(N)=O)c1` [Compound A28, 2-{2-[1-(2,6-Dimethylbenzyl)-5,6-difluoro-1H-benzimidazol-2-yl]-5-methoxy-3-methylphenoxy}acetamide], the IC50 (SGLT1) is reported as greater than 10 µM and the IC50 (SGLT2) is reported as 1 to 10 µM.

Molecule `Cc1cccc(C)c1Cn1c(-c2ccccc2OC(CO)C(N)=O)nc2ccccc21` (stereo not drawn) [Compound A27, 2-{2-[1-(2,6-Dimethylbenzyl)-1H-benzimidazol-2-yl]phenoxy}-3-hydroxypropionamide] has an IC50 (SGLT1) greater than 10 µM and an IC50 (SGLT2) greater than 10 µM.

Molecule `NC(=O)COc1ccccc1-c1nc2ccccc2n1Cc1c(F)cccc1F` [Compound A9, 2-{2-[1-(2,6-Difluorobenzyl)-1H-benzimidazol-2-yl]phenoxy}acetamide] has an IC50 (SGLT1) greater than 10 µM and an IC50 (SGLT2) of 1 to 10 µM.

With `COc1cc(C)c(-c2nc3ccc(F)c(F)c3n2Cc2c(C)cccc2C)c(OCC(N)=O)c1` [Compound A30, 2-{2-[1-(2,6-Dimethylbenzyl)-6,7-difluoro-1H-benzimidazol-2-yl]-5-methoxy-3-methylphenoxy}acetamide] the IC50 (SGLT1) was 1 to 10 µM and the IC50 (SGLT2) was 0.01 to 1 µM.
